This is an account of results in patent US20230203058A1, “MACROCYCLIC DIAMINE DERIVATIVES AS ENT INHIBITORS FOR THE TREATMENT OF CANCERS, AND COMBINATION THEREOF WITH ADENOSINE RECEPTOR ANTAGONISTS” (ITEOS BELGIUM SA, priority 2020, published 2023).

Where two headings read alike, the source gives them in different places.

In one test the test system is human T cells. As to the kind of experiment: T cell stimulation assay (Example III, FIG. 1). Type of test: cell-based. Particulars: ATP 100 µM. How it is done: FIG. 1A depicts a graph of log concentration (M) versus percent proliferation. Purified human T cells were activated with anti-CD3/CD28 dynabeads in the presence of ATP (100 µM) as a source of adenosine for 96 h and then proliferation was assessed by CFSE dilution.
FIG. 1B depicts a graph of log concentration of ENT1 inhibitor (M) versus percent proliferation. Experiment performed as in FIG. A with the addition of HSA and AAG to the culture medium (final concentration 2 and 0.1%, respectively).
Peripheral blood mononuclear cells (PBMCs) were first isolated via centrifugation of fresh whole blood over Lymphoprep using SepMate-50 tubes (both from […] Technologies) according to the manufacturer’s instructions. Human T cells were then isolated from the PBMCs using the EasySep Human T cell Isolation Kit ([…] Technologies) according to the manufacturer’s instructions and the cells were cryopreserved in FBS with 10% DMSO until required.
Cryopreserved human T cells were thawed on the day of the experiment and resuspended in PBS with 10% FBS at approximately 1 × 10^7 cells/ml. This cell suspension was diluted 1:1 with 2 µM CFSE solution (ThermoFisher Scientific) in PBS and incubated for 5 minutes at room temperature. The labelling reaction was quenched by further addition of PBS with 10% FBS, and then the cells were washed into X-VIVO15 medium (Lonza) for use in the T cell assay.
CFSE-labelled T cells were plated at 2 × 10^4 cells per well in 384 well plates in the presence of ATP (100 µM, Sigma-Aldrich) as a source of adenosine. Activation was driven by the addition of Dynabeads Human T-Activator CD3/CD28 (ThermoFisher Scientific) at a ratio of 0,5 beads per T cell. ENT1 inhibitor molecules including the reference molecule dilazep (Tocris Bioscience) were added, the volume of the wells was adjusted to 50 µl with X-VIVO15 medium and the plates were cultured in a humidified incubator for 96 h at 37° C. with 5% CO2. In some experiments the culture was supplemented with human serum albumin (HSA) and alpha-1-acid glycoprotein (AAG, both Sigma-Aldrich) at final concentrations of 2 and 0,1%, respectively.
Analysis of proliferation via CSFE dilution was performed by flow cytometry using a BD LSR Fortessa with data analysis on FlowJo (BD Biosciences).

Test [1] concerns CMV peptide-specific CD8+ T cells. Nature of the test: CMV antigen recall assay (FIG. 3). The class given is cell-based, human. Particulars: ATP 300 µM, 7 days, with IL-2, IL-7, nivolumab. The method, then: FIG. 3 depicts a bar graph of percent tetramer. PBMCs from a healthy volunteer donor with previous history of CMV infection and known HLA-A*02 subtype were cultured for 7 days with a peptide ([…]) derived from the immunodominant CMV antigen pp65 alongside IL-2, IL-7 and the anti-PD1 antibody nivolumab. ATP was added to the cultures as a source of adenosine, alongside the ENT1 inhibitor molecules as indicated. Expansion of the peptide-specific CD8^+ T cell population was monitored via flow cytometry using […]-MHC-I tetramers linked with BV421. ** = p < 0.01; * = p < 0.05; derived from one-way ANOVA with Tukey’s multiple comparisons test from technical replicates in a single experiment.
Frozen vials of PBMCs from a healthy volunteer donor with history of CMV infection and known HLA-A*02 subtype were purchased from ImmuneXperts. Cells were thawed and washed into X-VIVO15 medium containing 5% human serum and 1 mM sodium pyruvate and plated in 96 U bottom plates (1 × 10^6 cells per well). […] On day 7 of culture the cells were harvested and the frequency of CMV-peptide specific CD8^+ T cells was assessed via flow cytometry using […]-MHC-I tetramers (Tetramer Shop) by quantifying the frequency of tetramer^+ cells within the viable CD8^+ T cell gate.

Setting [2] is: anti-CD3/CD28 dynabeads, 96 h (FIG. 1A), read-out: IC50 of restoration of T cell proliferation.
Where [3] appears, read: with HSA 2% and AAG 0,1% (FIG. 1B), read-out: IC50 of restoration of T cell proliferation under high protein binding conditions.

For `COc1cc(C(=O)OC2CCCOc3cc(cc(OC)c3OC)C(=O)N(C)CCCN3CCCN(CC2)CC3)cc(OC)c1OC` (stereo not drawn) [Compound 11, 74,75-dimethoxy-5-methyl-6-oxo-8-oxa-5-aza-1(1,4)-diazepana-7(1,3)-benzenacyclotetradecaphane-12-yl 3,4,5-trimethoxybenzoate], the IC50 turned out to be 7 nM with human T cells (setting [2]) and 125 nM in the test on human T cells (setting [3]). The “Rescue of proliferation of CMV peptide-specific CD8+ T cells” value in test [1] was “significant rescue of proliferation”.
Consider `COc1cc(C(=O)O[C@H]2CCCOc3cc(cc(OC)c3OC)C(=O)OCCCN3CCCN(CC2)CC3)cc(OC)c1OC` [Compound 2, (12S)-74,75-dimethoxy-6-oxo-5,8-dioxa-1(1,4)-diazepana-7(1,3)-benzenacyclotetradecaphane-12-yl 3,4,5-trimethoxybenzoate], for which the IC50 in the test on human T cells (setting [2]) was determined as 0.3 nM; in the test with human T cells (setting [3]) it was 2 nM. Moreover, the “Rescue of proliferation of CMV peptide-specific CD8+ T cells” value in test [1] was “significant rescue of proliferation”.
